The test system of data set [1] is pancreatic cancer cell line Hup-T3. Put plainly: Cell-mediated cytotoxicity (CARE-LASS) assay, LAK effector cells on Hup-T3 target cells. It counts as cell-based. The conditions noted are these: FIG. 6; effector:target 10:1; Seq. Id. No. 30 5 microM; gemzar 20 μg/ml. The protocol:
Cell-mediated cytotoxicity was quantified by the […] assay (Lichtenfels et al. 1994) using the NSCLC (non small cell lung carcinoma cell) line NCI-H661, the glioma cell line A-172, and the pancreatic cancer cell line Hup-T3 as target cells. […] Id. No. 14. […] Id. […] Additionally, for Hup-T3 cells 3 μg/ml Lipofectin® were used to enhance cellular uptake of the PTO. Untreated cells and cells treated with 3 μg/ml Lipofectin® were used as controls. Lymphokine activated killer cells (LAK cells) were used as effector cells. […] The other part of cells was incubated without additional treatment. Effector cells were incubated with the target cells with and without cytostatic drugs for 4 h. The supraaditive effect respectively the inhibition was calculated by subtracting the specific cell lysis, of the control from the specific cell lysis of the chemotherapeutic agent. Taking into account the sign this difference is summed up with the specific lysis of the inhibitor of TGF-beta, as depicted in the figures. In case the specific lysis of the combination of a chemotherapeutic agent with the TGF-beta inhibitor was higher than this sum, this was interpreted as supraaditive effect. In case the specific lysis of this combination was smaller than the sum this was interpreted as inhibition.

In data set [2] the test system is glioblastoma, WHO grade IV. In words: Clinical phase I/II study, intratumoral Seq. Id. No. 30 in patients with glioblastoma. It counts as in vivo, human. The source says: (§1) Clinical studies represented herein were primarily designed as safety studies and were approved by the local ethic committees and performed in accordance with the current international declaration of Helsinki for human experimentation and GCP and had to sign a written informed consent prior to recruitment.
(§2) The treatment with the antineoplastic agent followed routine schedules if nothing else is mentioned. Before the treatment with an TGF-beta antagonist, the antisense oligonucleotide of TGF-beta, with Seq. No. 30 the patients were selected according to the following criteria.
(§3) Patients had high grade gliom, either anaplastic astrocytome, WHO grade III, or glioblastoma, WHO grade IV, refractory to or recurrent after standard therapy (surgery, radiotherapy and different therapies with antineoplastic substances). Patients had not received antineoplastic agents within 10 days prior to the administration of the antagonist. Patients were between 18 and 75 years old. Karnofsky performance status (KPS) was at least 70%. Patients with clinically significant acute infections, cardiovascular abnormalities or poorly controlled seizures and pregnant and lactating females were excluded.
Surgical planning was based on computer tomography or magnetic resonance images. The perforated part of the catheter was placed in the solid, enhancing area of the tumor. Ventricles, cysts, resection cavities from prior surgical interventions, blood vessels and eloquent brain areas had to be avoided by the catheter trajectory. The catheter was introduced through a standard burr hole into the center of the largest tumor lesion. The distal end of the catheter was passed several centimetres under the galea through the skin and filled with saline. TGF-beta 2 specific antisense oligonucleotide with Seq. Id. No. 30 was administered intratumorally as a continuous high-flow microperfusion using an external pump system, Graseby 3200 (Smith Medical, London, GBM). The application system was removed after the end of the infusion. For safety assessment patients were followed up for 28 days. […]

In data set [3] the test system is glioma cell line A-172. Put plainly: Cell-mediated cytotoxicity (CARE-LASS) assay, LAK effector cells on A-172 target cells. It counts as cell-based. Particulars: Seq. Id. No. 30 5 microM. The protocol:
(§4) Cell-mediated cytotoxicity was quantified by the CARE-LASS assay (Lichtenfels et al. 1994) using the NSCLC (non small cell lung carcinoma cell) line NCI-H661, the glioma cell line A-172, and the pancreatic cancer cell line Hup-T3 as target cells. NCI-H661 cells were pretreated with 5 μM TGF (transforming growth factor)-beta 1 specific antisense phosphorothioate oligodeoxynucleotide (PTO) Seq. Id. No. 14. A-172 and Hup-T3 cells were pretreated with 5 μM TGF-beta 2 specific antisense phosphorothioate oligodeoxynucleotide Seq. Id. No. 30 in medium at 5% CO2 and 37° C. for 3 days according to the cell line suppliers' instructions. Additionally, for Hup-T3 cells 3 μg/ml Lipofectin® were used to enhance cellular uptake of the PTO. Untreated cells and cells treated with 3 μg/ml Lipofectin® were used as controls.
Lymphokine activated killer cells (LAK cells) were used as effector cells. LAK cells were generated by a 3 day pretreatment of 5×10^6 PBMC from healthy volunteers with 10 ng/ml rh IL-2 (recombinant human interleukin 2) in 4 ml RPMI 1640 medium supplemented with 10% fetal calf serum at 5% CO2 and 37° C. One part of the effector cells was incubated additionally with rh TGF-[…] to mimic the presence of tumor cells ([…] rh TGF-[…]1 for NCI-H661, […] rh TGF-[…]2 for A-172 and Hup-T3). The other part of cells was incubated without additional treatment.
Effector cells were incubated with the target cells with and without cytostatic drugs for 4 h. The supraaditive effect respectively the inhibition was calculated by subtracting the specific cell lysis, of the control from the specific cell lysis of the chemotherapeutic agent. Taking into account the sign this difference is summed up with the specific lysis of the inhibitor of TGF-beta, as depicted in the figures. In case the specific lysis of the combination of a chemotherapeutic agent with the TGF-beta inhibitor was higher than this sum, this was interpreted as supraaditive effect. In case the specific lysis of this combination was smaller than the sum this was interpreted as inhibition.

Data set [4] relates to anaplastic astrocytoma, WHO grade III. Put plainly: Clinical phase I/II study, intratumoral Seq. Id. No. 30 in patients with anaplastic astrocytoma. It counts as in vivo, human.
Text: as §1, §2, §3
Surgical planning was based on computer tomography or magnetic resonance images. The perforated part of the catheter was placed in the solid, enhancing area of the tumor. Ventricles, cysts, resection cavities from prior surgical interventions, blood vessels and eloquent brain areas had to be avoided by the catheter trajectory. The catheter was introduced through a standard burr hole into the center of the largest tumor lesion. The distal end of the catheter was passed several centimetres under the galea through the skin and filled with saline. TGF-beta 2 specific antisense oligonucleotide with Seq. Id. No. 30 was administered intratumorally as a continuous high-flow microperfusion using an external pump system, Graseby 3200 (Smith Medical, London, GBM). The application system was removed after the end of the infusion. For safety assessment patients were followed up for 28 days. Post-study MRI and survival data until death were collected by the investigators.
Comparison of survival data of patients treated with antineoplastic agents in combination with antagonists of factors negatively influencing the immune system (here: an antisense oligonucleotide of TGF-beta with the sequence Id. No. 30) to literature data for treatment with antineoplastic alone. Survival time is given from start of first chemotherapy after tumor recurrence. Median overall survival time of all patients treated with antineoplastic agents and TGF-beta 2 specific antisense oligonucleotide with Seq. Id. No. 30 (anaplastic astrocytom: 8 patients, glioblastoma, 23 patients) are compared to the most current literature data (Theodosopoulos, P. V. et al. 2001).
Reduction of tumor volumes of patients 04 and 17 was more than 80%. Tumor volume was assessed by measurement of the largest cross-sectional diameter of the enhancing lesion in the first layer and the largest cross-sectional diameter perpendicular to the first in the same plane and layer. For the third dimension, the largest cross-sectional diameter of all further planes perpendicular to the first one was determined.

In data set [5] the test system is NSCLC (non small cell lung carcinoma cell) line NCI-H661. Put plainly: Cell-mediated cytotoxicity (CARE-LASS) assay, LAK effector cells on NCI-H661 target cells. It counts as cell-based. The conditions noted are these: FIG. 9; effector:target 1.25:1; Seq. Id. No. 14 5 microM; taxotere 0.37 μg/ml. The protocol:
as §4
Lymphokine activated killer cells (LAK cells) were used as effector cells. LAK cells were generated by a 3 day pretreatment of 5×10^6 PBMC from healthy volunteers with 10 ng/ml rh IL-2 (recombinant human interleukin 2) in 4 ml RPMI 1640 medium supplemented with 10% fetal calf serum at 5% CO2 and 37° C. […]
Effector cells were incubated with the target cells with and without cytostatic drugs for 4 h. The supraaditive effect respectively the inhibition was calculated by subtracting the specific cell lysis, of the control from the specific cell lysis of the chemotherapeutic agent. […]

Where [6] appears, read: calculated after start of chemotherapy, patients treated with antineoplastic agents and Seq. Id. No. 30.
The mark [7] stands for this setting: oligonucleotide following chemotherapy (mainly temozolomide).
[8] abbreviates: FIG. 4, effector:target 20:1, BCNU 4 μM.
[9] abbreviates: FIG. 5, effector:target 1.25:1, CCNU 10 μM.
Where [10] appears, read: FIG. 7, effector:target 10:1, temozolomide 50 μM.
The mark [11] stands for this setting: FIG. 8, effector:target 2.5:1, vincristine 0.04 μmol/ml.
Setting [12] is: FIG. 10, effector:target 5:1, procarbacine 3 nmol/ml.

In the case of CGGCATGTCTATTTTGTA [Seq. Id. No. 30], the “specific lysis of tumor cells” value stood at 59.5% in data set [1]; 29.4% in data set [3] (setting [8]); 4.4% in data set [3] (setting [9]); 39.2% in data set [3] (setting [10]); 13.9% in data set [3] (setting [11]). In addition, the “median overall survival time” value is on record as 45.1 weeks in data set [2] (FIG. 3, Seq. Id. No. 30 following temozolomide, from start of first chemotherapy after tumor recurrence, 10 patients) and 146.6 weeks in data set [4] (FIG. 3, Seq. Id. No. 30 following temozolomide, from start of first chemotherapy after tumor recurrence, 3 patients). Also, the “median overall survival in our study” value in data set [2] (setting [6]) is on record as 42.4 weeks; in data set [4] (setting [6]), 147 weeks. Moreover, the “median overall survival times” value in data set [2] (setting [7]) is on record as 45 weeks; in data set [4] (setting [7]), “about 147 weeks”. Besides, the tumor response result in data set [4] (1. Example, one patient, 21 months after first application, assessed by 3 independent specialists) is “complete response”. Further, the “overall survival after first recurrence” value in data set [4] (1. Example, one patient, one cycle 10 μM, 4 μL/min, 1.42 mg in 4 days intratumorally after ACNU/tenoposide, temozolomide, Caelyx) is recorded as 195 weeks. For the same compound, the “overall survival after diagnosis of anaplastic astrocytoma” value in data set [4] (1. Example, one patient, one cycle intratumorally after prior chemotherapy) came out at 208 weeks. Further, in data set [4] (2. Example, one patient, magnetic resonance image 19.4 months after start of oligonucleotide treatment, central reading, partial response), the tumor reduction was found to be 83%. Moreover, the mean overall survival in data set [4] (all anaplastic astrocytoma patients) is recorded as 90 weeks; in data set [4] (combination of Seq. Id. No. 30 and at least one further antineoplastic agent (e.g. temozolomide)), 146.6 weeks. Further, the “Reduction of tumor volumes” value in data set [4] (patients 04 and 17) is recorded as “more than 80%”.
On to `CNNCc1ccc(C(=O)NC(C)C)cc1` [procarbacine, reference compound], for which the “specific lysis of tumor cells” value in data set [3] (setting [12]) was determined as 6.1%.
For the compound `Nc1ccn([C@@H]2O[C@H](CO)[C@@H](O)C2(F)F)c(=O)n1` [gemzar, reference compound], the “specific lysis of tumor cells” value in data set [1] was determined as 34.5%.
For `O=NN(CCCl)C(=O)NC1CCCCC1` [CCNU, 1-(2-Chloroethyl)-3-cyclohexyl-1-nitrosourea, reference compound], the “specific lysis of tumor cells” value in data set [3] (setting [9]) is given as 0.5%.
As for `Cn1nnc2c(C(N)=O)ncn2c1=O` [temozolomide, 3,4-dihydro-3-methyl-4-oxoimidazo->5,1d′1,2,3,4-tetrazin-8-carboximide, reference compound], in data set [3] (setting [10]), the “specific lysis of tumor cells” value came to 31.3%.
For `CC[C@]1(O)C[C@H]2CN(CCc3c([nH]c4ccccc34)[C@@](C(=O)OC)(c3cc4c(cc3OC)N(C=O)[C@H]3[C@@](O)(C(=O)OC)[C@H](OC(C)=O)[C@]5(CC)C=CCN6CC[C@]43[C@@H]65)C2)C1` [vincristine, reference compound], in data set [3] (setting [11]), the “specific lysis of tumor cells” value was 12.6%.
`O=NN(CCCl)C(=O)NCCCl` [BCNU, N,N′-bis(2-chlorethyl)-N-nitroso-urea, reference compound]: the “specific lysis of tumor cells” value in data set [3] (setting [8]) is 15.6%.
`CC(=O)O[C@@]12CO[C@@H]1C[C@H](O)[C@@]1(C)C(=O)[C@H](O)C3=C(C)[C@@H](OC(=O)[C@H](O)[C@@H](NC(=O)OC(C)(C)C)c4ccccc4)C[C@@](O)([C@@H](OC(=O)c4ccccc4)[C@H]21)C3(C)C` [taxotere, reference compound]: the “specific lysis of tumor cells” value in data set [5] is reported as 30.5%.
As to “CTGATGTGTTGAAGAACA (chemistry not given here) [Seq. Id. No. 14]”, the “specific lysis of tumor cells” value in data set [5] was found to be 65.3%; in data set [3] (setting [12]) it was 16.4%.

Source of the values: patent publication US20100160208A1, “Pharmaceutical composition” (Antisense Pharma GmbH, priority 2003, published 2010).
